According to ChEMBL document CHEMBL5247605, “Discovery of potent indazole-based human glutaminyl cyclase (QC) inhibitors as Anti-Alzheimer's disease agents” (Eur J Med Chem, 2022):
The source made the active and inactive calls. No cut-off for these calls is given here.

How the values were obtained:
[1] = Cytotoxicity against mouse HT-22 cells assessed as cell viability at 10 uM incubated for 18 hrs by MTT assay relative to control; assay type: toxicity, cell-based; conditions: read-out: Activity
[2] = target: hERG (KCNH2) (Homo sapiens, UniProt Q12809); test: Inhibition of hERG at 10 uM by fluorescence polarization assay relative to control; assay type: toxicity
[3] = system: Mus musculus; test: Antialzheimer activity in human amyloid beta (3 to 40 residues) induced ICR mouse model assessed as inhibition of pyroglutamate form of amyloid-beta formation in brain at 10 mM, icv by sandwich ELISA relative to control; assay type: functional
[4] = target: Voltage-gated inwardly rectifying potassium channel KCNH2 (Homo sapiens, UniProt Q12809); test: Inhibition of hERG by fluorescence polarization assay; assay type: toxicity
[5] = species: Mus musculus; conditions: ICR, dose 10.0 mM, route icv
[6] = target: Glutaminyl-peptide cyclotransferase (Mus musculus, UniProt Q9CYK2); test: Inhibition of mouse glutaminyl cyclase
[7] = Metabolic stability in human liver microsomes assessed as compound remaining after 30 mins; assay type: ADME, Microsome; conditions: read-out: Stability
[8] = Metabolic stability in mouse liver microsomes assessed as compound remaining after 30 mins; assay type: ADME, Microsome; conditions: read-out: Stability

Voltage-gated inwardly rectifying potassium channel KCNH2, sequence (Q12809 whole entry): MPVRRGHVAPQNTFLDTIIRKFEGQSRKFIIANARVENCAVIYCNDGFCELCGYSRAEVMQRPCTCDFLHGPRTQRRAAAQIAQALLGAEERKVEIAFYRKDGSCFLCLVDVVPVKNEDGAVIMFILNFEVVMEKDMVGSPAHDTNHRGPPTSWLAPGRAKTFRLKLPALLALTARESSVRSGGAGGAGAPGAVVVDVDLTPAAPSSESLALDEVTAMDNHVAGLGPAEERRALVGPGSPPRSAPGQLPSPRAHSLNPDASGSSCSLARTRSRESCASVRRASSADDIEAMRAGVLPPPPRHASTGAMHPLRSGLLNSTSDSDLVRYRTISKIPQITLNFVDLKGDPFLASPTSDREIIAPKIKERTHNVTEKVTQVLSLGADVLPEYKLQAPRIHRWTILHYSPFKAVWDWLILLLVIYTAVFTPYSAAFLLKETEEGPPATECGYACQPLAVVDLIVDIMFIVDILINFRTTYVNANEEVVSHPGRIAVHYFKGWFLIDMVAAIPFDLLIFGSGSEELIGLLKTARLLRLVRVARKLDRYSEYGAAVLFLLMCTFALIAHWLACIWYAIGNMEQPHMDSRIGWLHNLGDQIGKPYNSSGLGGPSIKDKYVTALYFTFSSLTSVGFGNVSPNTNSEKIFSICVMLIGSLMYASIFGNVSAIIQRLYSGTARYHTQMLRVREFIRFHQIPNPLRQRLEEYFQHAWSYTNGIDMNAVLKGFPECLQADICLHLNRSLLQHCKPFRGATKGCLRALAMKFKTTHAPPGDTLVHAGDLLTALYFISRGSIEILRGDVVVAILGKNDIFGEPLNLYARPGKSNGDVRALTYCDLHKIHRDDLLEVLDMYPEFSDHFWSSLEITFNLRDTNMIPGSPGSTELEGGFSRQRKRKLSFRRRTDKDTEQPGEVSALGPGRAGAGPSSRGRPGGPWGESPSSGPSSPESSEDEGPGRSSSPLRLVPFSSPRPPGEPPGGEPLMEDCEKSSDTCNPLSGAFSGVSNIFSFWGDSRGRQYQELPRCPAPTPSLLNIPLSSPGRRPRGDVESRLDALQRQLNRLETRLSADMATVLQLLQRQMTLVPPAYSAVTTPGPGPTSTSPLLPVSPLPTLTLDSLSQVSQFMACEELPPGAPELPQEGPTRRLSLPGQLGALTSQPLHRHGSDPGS
hERG (KCNH2), sequence (Q12809 whole entry, the tested form may be a part): as the sequence (Q12809 whole entry) above
Glutaminyl-peptide cyclotransferase, sequence (Q9CYK2 whole entry): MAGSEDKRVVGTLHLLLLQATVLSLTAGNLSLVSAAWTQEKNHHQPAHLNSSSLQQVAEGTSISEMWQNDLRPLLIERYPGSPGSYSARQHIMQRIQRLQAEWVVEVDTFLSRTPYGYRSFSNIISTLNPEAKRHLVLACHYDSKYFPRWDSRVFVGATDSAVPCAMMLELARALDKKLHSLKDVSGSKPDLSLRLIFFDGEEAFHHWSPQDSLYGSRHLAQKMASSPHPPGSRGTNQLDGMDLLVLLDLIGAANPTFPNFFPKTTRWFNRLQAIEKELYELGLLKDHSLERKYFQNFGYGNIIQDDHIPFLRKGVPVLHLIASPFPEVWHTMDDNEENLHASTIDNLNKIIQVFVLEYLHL

Compound | viability at 18 h, 10 µM [1] | inhibition at 10 µM [2] | inhibition (INH) [3] | IC50 [4] | inhibition [5] | IC50 [6] | remaining at 0.5 h [7] | remaining at 0.5 h [8]
Cc1nn(CCCCc2ccnc(N)c2)c2ccc(NC(=O)NCCCn3cncc3C)cc12 | 98.7% | 50.3% | 7.7% |  |  |  |  | 
Cc1n[nH]c2ccc(N(C(=O)NCCCn3cncc3C)C3CCCCC3)cc12 | 100% | 74.4% | 8% | > 10 µM |  |  |  | 
Cc1nn(C)c2ccc(N(Cc3ccc(F)cc3)C(=O)NCCCn3cncc3C)cc12 | 108% | 63.6% | 7% | > 10 µM |  |  |  | 
Cc1nn(C)c2cc(N(CC3CCCC3)C(=O)NCCCn3cncc3C)ccc12 | 107% | 70.3% |  | > 10 µM | inactive |  |  | 
Cc1n[nH]c2cc(N(Cc3ccc(F)cc3)C(=O)NCCCn3cncc3C)ccc12 | 92.1% | 61.9% | 38.4% | > 10 µM |  | 0.0299 µM | 40.1% | 7.2%
Cc1nn(C)c2ccc(N(Cc3cccnc3)C(=O)NCCCn3cncc3C)cc12 | 98.3% | 44.1% |  | < 10 µM | inactive |  |  | 
Cc1cncn1CCCNC(=O)N(Cc1ccc(F)cc1)c1ccc2c(C)n(C)nc2c1 | 91.3% | 52% | 15% |  |  |  |  | 
CCCOc1ccc([C@@H]2CNC(=O)N2c2ccc3nc[nH]c3c2)cc1 |  |  | 17.1% |  |  |  |  | 
Cc1nn(C)c2cc(N(Cc3ccc(F)cc3)C(=O)NCCCn3cncc3C)ccc12 | 102% | 56.5% |  |  | inactive |  |  | 
Cc1n[nH]c2cc(N(C(=O)NCCCn3cncc3C)C3CCCCC3)ccc12 | 100% | 47.6% | 25% | < 10 µM |  | 0.0342 µM | 50.4% | 18.4%
Cc1n[nH]c2ccc(N(Cc3ccc(F)cc3)C(=O)NCCCn3cncc3C)cc12 | 97.2% | 80.6% |  | > 10 µM | inactive |  |  | 
Cc1nn(C)c2ccc(NC(=O)NCCCn3cncc3C)cc12 | 104% | 54.4% |  |  | inactive |  |  | 
Cc1nn(C)c2ccc(N(CC3CCCC3)C(=O)NCCCn3cncc3C)cc12 | 104% | 81.5% |  | > 10 µM | inactive |  |  | 
Cc1nn(C)c2cc(N(C(=O)NCCCn3cncc3C)C3CCCCC3)ccc12 | 102% | 52.2% |  |  | inactive |  |  | 
Cc1nn(C)c2ccc(N(C(=O)NCCCn3cncc3C)C3CCCCC3)cc12 | 99.1% | 58.1% |  | > 10 µM | inactive |  |  | 
Cc1n[nH]c2cc(N(CC3CCCC3)C(=O)NCCCn3cncc3C)ccc12 | 96.9% | 80.8% | 25.5% | > 10 µM |  | 0.0182 µM | 37% | 11.8%
